Here are results for two compounds from ChEMBL document CHEMBL1147578, “Design, synthesis, and SAR of anthranilamide-based factor Xa inhibitors with improved functional activity” (Bioorg Med Chem Lett, 2004).

Data set [1] can be described thus: Plasma clearance after intravenous administration of 0.4 mg/kg of dose in rats was determined. It is filed as ADME, organism-based. Set-up: dose 0.4 mg/kg, route intravenous. The settings on record: rat.
Data set [2] in a line: Half life after intravenous administration was determined in rats at 0.4 mg/kg. The settings on record: rat, in vivo.
For data set [3], the species on record is Homo sapiens. In words: Concentration required to double the lag time of maximum thrombin generation in human plasma-based thrombin generation assay. It is filed as functional.
The species named for data set [4] is Oryctolagus cuniculus. Description: Percent inhibition of thrombus formation in rabbit deep vein thrombosis at 0.83 uM. In kind it is functional.
Data set [5] deals with Prothrombin (Homo sapiens, UniProt P00734). Description: Inhibitory activity against thrombin.
For data set [6], the target named is Plasma kallikrein (Homo sapiens, UniProt P03952). Description: Inhibitory activity against kallikrein.
Plasma kallikrein, sequence (P03952 20-390 limits assumed): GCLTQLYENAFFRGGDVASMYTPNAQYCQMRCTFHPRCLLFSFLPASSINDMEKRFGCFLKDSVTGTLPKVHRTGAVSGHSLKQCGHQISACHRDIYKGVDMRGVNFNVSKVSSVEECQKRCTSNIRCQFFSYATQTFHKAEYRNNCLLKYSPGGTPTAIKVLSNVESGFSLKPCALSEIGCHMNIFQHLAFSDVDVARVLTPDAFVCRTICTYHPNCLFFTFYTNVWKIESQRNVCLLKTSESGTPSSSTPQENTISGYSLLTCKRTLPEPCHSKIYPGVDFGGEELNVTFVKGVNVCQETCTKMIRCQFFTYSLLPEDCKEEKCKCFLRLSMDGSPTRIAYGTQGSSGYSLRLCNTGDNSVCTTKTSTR
Plasma kallikrein, sequence (P03952 391-638 limits assumed): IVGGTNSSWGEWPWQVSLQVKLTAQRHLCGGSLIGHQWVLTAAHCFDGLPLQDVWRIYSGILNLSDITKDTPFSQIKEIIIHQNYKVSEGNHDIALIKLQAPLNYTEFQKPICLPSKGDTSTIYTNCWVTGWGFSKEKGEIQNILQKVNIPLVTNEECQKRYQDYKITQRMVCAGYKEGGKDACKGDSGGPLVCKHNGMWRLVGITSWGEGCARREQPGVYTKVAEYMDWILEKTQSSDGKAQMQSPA
For data set [7], the species on record is Oryctolagus cuniculus. In words: Percent inhibition of thrombus formation in rabbit deep vein thrombosis at 0.25 uM. It is filed as functional.
Data set [8] concerns Rattus norvegicus. In words: Volume of distribution after intravenous administration of 0.4 mg/kg of dose in rats was determined. The settings on record: in vivo.
Data set [9] in a line: Oral bioavailability in rat (dose 6 mg/kg). The settings on record: in vivo. In kind it is ADME, organism-based.
In data set [10] the target is Serine protease 1 (Homo sapiens, UniProt P07477). In words: Inhibitory activity against trypsin.
Serine protease 1, sequence (P07477 whole entry): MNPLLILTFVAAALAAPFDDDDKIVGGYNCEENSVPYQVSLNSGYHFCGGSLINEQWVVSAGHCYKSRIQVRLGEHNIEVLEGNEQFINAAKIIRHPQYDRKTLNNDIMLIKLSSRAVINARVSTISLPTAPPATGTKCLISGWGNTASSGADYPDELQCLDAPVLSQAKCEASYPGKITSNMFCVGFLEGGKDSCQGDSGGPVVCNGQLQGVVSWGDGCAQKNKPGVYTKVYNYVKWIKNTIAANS
Data set [11] concerns the target Plasminogen (Homo sapiens, UniProt P00747). Description: Inhibitory activity against plasmin.
The target of data set [12] is Tissue-type plasminogen activator (Homo sapiens, UniProt P00750). In words: Inhibitory activity against tissue type plasminogen activator.
Tissue-type plasminogen activator, sequence (P00750 whole entry): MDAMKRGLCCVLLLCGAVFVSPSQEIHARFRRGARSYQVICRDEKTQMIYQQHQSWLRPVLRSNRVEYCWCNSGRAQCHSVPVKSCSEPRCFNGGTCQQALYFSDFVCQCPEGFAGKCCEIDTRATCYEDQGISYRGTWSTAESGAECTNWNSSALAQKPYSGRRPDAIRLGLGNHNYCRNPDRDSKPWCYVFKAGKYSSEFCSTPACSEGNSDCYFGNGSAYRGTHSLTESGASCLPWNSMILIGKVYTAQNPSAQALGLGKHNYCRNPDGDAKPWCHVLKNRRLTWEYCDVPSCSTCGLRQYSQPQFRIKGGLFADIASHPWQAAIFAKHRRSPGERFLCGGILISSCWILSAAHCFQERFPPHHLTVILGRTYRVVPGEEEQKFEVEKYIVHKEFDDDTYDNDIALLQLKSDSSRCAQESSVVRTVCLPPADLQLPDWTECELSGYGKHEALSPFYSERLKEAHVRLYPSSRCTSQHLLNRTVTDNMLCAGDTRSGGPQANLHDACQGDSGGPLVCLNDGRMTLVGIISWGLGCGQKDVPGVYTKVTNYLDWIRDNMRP
The target of data set [13] is Vitamin K-dependent protein C (Homo sapiens, UniProt P04070). Description: Inhibitory activity against activated protein C.
Vitamin K-dependent protein C, sequence (P04070 43-197 limits assumed): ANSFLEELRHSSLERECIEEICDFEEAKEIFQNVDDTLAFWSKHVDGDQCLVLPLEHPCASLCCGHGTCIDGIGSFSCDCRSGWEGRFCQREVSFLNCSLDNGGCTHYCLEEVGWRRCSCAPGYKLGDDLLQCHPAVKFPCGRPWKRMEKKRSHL
Vitamin K-dependent protein C, sequence (P04070 212-461 limits assumed): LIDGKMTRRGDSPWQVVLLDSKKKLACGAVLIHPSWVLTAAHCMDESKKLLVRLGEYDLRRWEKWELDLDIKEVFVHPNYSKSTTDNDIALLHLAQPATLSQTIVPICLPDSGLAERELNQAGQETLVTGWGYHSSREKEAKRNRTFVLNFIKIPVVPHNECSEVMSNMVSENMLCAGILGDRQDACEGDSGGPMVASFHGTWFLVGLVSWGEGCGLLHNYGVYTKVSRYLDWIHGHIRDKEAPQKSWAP
The nature of data set [14]: Oral bioavailability in dog. The settings on record: in vivo. It is filed as ADME, organism-based, Canis lupus familiaris.
The species named for data set [15] is Rattus norvegicus. In words: Effective dose required for antithrombotic activity in rat vena cava stasis model. It is filed as functional.

Some results are limits rather than exact numbers.

Plasminogen, sequence (P00747 97-580 limits assumed): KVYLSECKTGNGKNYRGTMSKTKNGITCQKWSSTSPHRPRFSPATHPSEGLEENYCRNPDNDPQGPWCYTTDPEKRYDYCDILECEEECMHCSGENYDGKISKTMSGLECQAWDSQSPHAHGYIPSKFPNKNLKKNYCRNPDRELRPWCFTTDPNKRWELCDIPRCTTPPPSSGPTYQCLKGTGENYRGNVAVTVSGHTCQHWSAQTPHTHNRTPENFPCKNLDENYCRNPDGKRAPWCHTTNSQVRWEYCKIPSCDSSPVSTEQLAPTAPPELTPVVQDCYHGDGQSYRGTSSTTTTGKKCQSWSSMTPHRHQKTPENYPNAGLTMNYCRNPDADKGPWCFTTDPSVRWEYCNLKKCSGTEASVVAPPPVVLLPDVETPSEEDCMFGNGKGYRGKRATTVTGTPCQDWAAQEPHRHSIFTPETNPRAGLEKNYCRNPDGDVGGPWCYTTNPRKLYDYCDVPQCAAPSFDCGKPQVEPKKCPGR
Plasminogen, sequence (P00747 581-810 limits assumed): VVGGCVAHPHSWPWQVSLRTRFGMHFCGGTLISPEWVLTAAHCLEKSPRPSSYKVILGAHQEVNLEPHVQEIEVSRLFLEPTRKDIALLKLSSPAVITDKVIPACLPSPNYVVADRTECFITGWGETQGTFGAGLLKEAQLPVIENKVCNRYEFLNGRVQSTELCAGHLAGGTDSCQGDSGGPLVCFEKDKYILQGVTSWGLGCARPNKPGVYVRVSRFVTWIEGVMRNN

Compound `N=C1OCCN1Cc1ccc(C(=O)Nc2ccc(Cl)cc2C(=O)Nc2ccc(Cl)cn2)cc1` returned a clearance in [1] of 18.3 mL/min/kg. This compound showed a half-life in data set [2] of 8.5 h. The compound further gave an Activity in [3] of 0.56 µM. Also, the values for the Inhibition in data set [4] and in [7] were 40% and 25%, respectively. Further, the 50% inhibitory concentration (IC50) in data set [5] is above 11 µM; in data set [6], 0.56 µM; in data set [10], above 11 µM; in data set [11], above 11 µM; in data set [12], above 11 µM; in data set [13], above 11 µM. The Volume of distribution in data set [8] came to 13.6 L/kg. Also, the bioavailability in [9] came to 44%.

In data set [14], `COc1cc(Cl)cc(C(=O)Nc2ccc(Cl)cn2)c1NC(=O)c1scc(CN(C)C2=NCCO2)c1Cl` had a bioavailability of 40%. The ED50 in [15] was 0.8 µM.
